Calls of active or inactive are those of the source.
Assays:
[1] = A cytotoxicity screen of small molecule inhibitors of the PhoP region in Salmonella typhi identified in the primary screen. [Related pubchem assays: 1850, 1864, 1985 ]; assay type: functional
[2] = test system: Escherichia coli; test: microbe, parasite or virus in culture
[3] = target: Aspartyl aminopeptidase (Plasmodium falciparum 3D7, UniProt Q8I2J3)
[4] = target: Procathepsin L (Homo sapiens, UniProt P07711)
[5] = target: T1, Alkaline phosphatase, tissue-nonspecific isozyme (Homo sapiens, UniProt P05186)
T1 sequence (P05186 whole entry): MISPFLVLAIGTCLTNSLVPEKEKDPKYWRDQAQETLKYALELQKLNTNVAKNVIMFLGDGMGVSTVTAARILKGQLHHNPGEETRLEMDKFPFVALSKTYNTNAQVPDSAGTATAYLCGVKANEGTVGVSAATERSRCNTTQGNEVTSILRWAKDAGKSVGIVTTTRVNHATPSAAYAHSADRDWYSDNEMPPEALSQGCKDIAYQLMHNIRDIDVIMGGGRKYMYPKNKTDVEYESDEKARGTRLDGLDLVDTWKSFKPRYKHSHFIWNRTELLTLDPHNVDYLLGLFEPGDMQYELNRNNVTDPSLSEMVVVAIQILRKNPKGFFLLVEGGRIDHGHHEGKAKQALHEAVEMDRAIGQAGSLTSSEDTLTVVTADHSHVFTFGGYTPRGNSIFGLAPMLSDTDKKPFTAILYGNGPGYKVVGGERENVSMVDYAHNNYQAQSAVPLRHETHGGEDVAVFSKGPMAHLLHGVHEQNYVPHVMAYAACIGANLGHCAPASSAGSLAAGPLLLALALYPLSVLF

[6] = target: Lysosomal acid glucosylceramidase (Homo sapiens, UniProt P04062); test: Dose response cell-based high throughput screening assay to identify enhancers of beta-glucosidase activity. [Related pubchem assays: 784 ]; assay type: functional
Chain of Lysosomal acid glucosylceramidase (P04062 whole entry): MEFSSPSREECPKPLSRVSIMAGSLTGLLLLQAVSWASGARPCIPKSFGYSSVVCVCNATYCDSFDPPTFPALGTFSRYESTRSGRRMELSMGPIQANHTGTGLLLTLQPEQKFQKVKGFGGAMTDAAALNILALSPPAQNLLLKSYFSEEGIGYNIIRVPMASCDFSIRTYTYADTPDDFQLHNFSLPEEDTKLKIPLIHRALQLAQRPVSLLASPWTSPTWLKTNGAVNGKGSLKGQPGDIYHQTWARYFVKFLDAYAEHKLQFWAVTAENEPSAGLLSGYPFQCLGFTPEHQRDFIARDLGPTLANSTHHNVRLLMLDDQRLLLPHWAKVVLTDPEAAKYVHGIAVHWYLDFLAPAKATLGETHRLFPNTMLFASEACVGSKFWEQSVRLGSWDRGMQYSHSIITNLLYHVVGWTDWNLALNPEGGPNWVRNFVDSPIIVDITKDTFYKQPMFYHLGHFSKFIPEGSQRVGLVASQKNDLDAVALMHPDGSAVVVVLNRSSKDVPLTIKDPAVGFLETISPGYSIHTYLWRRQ

[7] = target: T2, Mucolipin-3 (Homo sapiens, UniProt Q8TDD5); test: Dose response cell-based high-throughput screening assay for agonists of the transient receptor potential channel ML3 (TRPML3). [Related pubchem assays: 1526, 1424, 1448 ]; assay type: functional
T2 sequence (Q8TDD5 whole entry): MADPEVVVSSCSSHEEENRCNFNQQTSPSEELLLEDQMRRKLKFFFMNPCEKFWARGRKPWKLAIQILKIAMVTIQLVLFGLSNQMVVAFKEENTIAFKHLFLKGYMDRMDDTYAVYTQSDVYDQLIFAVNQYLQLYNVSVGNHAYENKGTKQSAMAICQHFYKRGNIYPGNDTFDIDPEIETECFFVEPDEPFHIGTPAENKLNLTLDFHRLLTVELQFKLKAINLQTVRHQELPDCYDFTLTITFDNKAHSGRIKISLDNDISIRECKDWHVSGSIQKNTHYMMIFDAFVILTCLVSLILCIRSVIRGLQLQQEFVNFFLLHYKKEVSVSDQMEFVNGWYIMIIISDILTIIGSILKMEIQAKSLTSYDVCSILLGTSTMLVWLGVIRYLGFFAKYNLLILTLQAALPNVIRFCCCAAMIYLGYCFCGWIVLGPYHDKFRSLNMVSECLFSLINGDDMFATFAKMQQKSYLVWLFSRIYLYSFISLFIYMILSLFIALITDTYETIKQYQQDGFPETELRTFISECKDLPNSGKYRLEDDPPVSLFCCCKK

[8] = target: Ion channel NompC (Danio rerio, UniProt Q7T1G6); test: Fluorescence counterscreen assay for TRPML3 agonists: dose response cell-based high-throughput screening assay to identify agonists of the transient receptor potential channel N1 (TRPN1). [Related pubchem assays: 1526, 1424, 1448 ]; assay type: functional
Chain of Ion channel NompC (Q7T1G6 whole entry): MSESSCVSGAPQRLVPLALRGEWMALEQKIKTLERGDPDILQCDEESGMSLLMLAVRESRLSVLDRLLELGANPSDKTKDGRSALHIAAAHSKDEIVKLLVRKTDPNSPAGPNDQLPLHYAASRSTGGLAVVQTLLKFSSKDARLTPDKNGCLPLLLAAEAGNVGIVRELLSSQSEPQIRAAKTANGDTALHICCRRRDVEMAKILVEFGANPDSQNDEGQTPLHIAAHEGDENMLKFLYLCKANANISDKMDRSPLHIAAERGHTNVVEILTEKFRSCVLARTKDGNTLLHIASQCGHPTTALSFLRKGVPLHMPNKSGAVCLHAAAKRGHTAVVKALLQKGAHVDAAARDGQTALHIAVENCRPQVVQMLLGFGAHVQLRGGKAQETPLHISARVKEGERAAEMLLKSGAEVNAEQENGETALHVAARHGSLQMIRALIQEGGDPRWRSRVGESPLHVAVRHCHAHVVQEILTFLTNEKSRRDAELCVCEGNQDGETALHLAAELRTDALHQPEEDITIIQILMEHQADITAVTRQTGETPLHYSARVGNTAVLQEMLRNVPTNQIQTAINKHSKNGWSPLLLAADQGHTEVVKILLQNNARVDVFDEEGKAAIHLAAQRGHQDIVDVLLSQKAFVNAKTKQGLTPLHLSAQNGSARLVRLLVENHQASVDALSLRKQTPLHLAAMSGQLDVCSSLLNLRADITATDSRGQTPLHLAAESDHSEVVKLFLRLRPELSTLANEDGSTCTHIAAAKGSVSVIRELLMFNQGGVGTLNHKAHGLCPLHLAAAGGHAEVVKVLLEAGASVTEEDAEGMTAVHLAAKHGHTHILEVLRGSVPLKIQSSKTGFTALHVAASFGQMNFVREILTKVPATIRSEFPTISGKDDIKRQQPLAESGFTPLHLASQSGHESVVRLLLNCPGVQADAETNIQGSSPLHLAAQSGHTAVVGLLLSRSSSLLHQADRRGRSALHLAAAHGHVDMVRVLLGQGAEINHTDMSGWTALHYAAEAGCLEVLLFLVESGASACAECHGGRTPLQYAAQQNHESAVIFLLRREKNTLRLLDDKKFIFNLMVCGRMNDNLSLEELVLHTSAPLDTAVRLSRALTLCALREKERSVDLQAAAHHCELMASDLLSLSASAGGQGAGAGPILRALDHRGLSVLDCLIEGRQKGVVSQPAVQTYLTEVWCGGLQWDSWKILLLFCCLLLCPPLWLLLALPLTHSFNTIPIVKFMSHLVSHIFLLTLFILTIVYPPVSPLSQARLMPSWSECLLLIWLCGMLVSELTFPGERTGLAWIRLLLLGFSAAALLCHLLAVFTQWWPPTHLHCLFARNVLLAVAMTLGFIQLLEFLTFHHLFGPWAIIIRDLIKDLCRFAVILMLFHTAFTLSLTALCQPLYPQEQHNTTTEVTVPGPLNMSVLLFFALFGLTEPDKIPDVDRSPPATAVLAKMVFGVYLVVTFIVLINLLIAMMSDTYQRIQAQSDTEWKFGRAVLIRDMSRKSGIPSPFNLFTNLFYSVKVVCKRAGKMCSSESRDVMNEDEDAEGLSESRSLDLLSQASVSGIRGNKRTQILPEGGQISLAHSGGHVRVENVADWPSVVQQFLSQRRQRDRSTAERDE

[9] = NIH-3T3 fibroblast cytotoxicity, dose response, cytotoxicity control, cell-based, fluorescence, Alamar Blue, secondary assay (AID 2327); assay type: functional;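 further: NIH-3T3 mouse fibroblasts cultured with fluconazole at 8 µg/mL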
[10] = C. albicans growth with fluconazole, confirmation, fluorescence, retest (AID 2467); assay type: functional, cell-based
[11] = target: T3, Sphingosine 1-phosphate receptor 4 (Homo sapiens, UniProt O95977); test: Fluorescence dose response cell-based high throughput screening assay for antagonists of the Sphingosine 1-Phosphate Receptor 4 (S1P4). [Related pubchem assays: 1524 (Confirmation in triplicates.), 1510 (Primary screen.)]; assay type: functional
T3 sequence (O95977 whole entry): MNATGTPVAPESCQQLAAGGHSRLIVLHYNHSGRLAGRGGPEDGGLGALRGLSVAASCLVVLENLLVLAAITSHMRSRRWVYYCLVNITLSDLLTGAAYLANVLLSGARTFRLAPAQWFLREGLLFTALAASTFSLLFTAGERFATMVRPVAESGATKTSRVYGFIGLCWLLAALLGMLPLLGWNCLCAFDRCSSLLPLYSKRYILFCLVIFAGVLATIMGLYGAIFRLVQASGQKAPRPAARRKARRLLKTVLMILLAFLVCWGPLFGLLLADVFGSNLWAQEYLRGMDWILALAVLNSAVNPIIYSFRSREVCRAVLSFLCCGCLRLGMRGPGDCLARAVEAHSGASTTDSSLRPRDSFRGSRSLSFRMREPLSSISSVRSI

[12] = target: Sphingosine 1-phosphate receptor 1 (Homo sapiens, UniProt P21453); assay type: functional;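 further: Tango beta-arrestin reporter U2OS cells stimulated with S1P near its EC80; inhibitor potency meaning antagonism of receptor activation by the natural agonist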
Chain of Sphingosine 1-phosphate receptor 1 (P21453 whole entry): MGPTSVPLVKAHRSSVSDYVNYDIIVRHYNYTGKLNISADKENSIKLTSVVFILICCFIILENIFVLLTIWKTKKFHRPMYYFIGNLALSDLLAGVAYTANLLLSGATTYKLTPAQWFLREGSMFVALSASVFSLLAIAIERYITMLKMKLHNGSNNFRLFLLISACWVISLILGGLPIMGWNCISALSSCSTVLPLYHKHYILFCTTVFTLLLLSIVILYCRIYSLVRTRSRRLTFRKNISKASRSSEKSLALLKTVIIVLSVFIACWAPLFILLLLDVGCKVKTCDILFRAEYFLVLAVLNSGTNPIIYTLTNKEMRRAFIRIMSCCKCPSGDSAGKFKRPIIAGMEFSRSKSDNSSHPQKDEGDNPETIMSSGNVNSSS

[13] = target: T4, Heat shock factor protein 1 (Mus musculus, UniProt P38532); test: HSF1 potentiators in luciferase reporter cells, confirmation, cell-based, NIH3T3, luminescence, dose retest (AID 435004); assay type: functional;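 further: stress induced by proteasome inhibitor MG132 added 30 min after compound; luciferase reporter driven by HSF1 response element in NIH3T3 cells; actives raise luminescence as potentiators of the MG132 stress response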
T4 sequence (P38532 whole entry): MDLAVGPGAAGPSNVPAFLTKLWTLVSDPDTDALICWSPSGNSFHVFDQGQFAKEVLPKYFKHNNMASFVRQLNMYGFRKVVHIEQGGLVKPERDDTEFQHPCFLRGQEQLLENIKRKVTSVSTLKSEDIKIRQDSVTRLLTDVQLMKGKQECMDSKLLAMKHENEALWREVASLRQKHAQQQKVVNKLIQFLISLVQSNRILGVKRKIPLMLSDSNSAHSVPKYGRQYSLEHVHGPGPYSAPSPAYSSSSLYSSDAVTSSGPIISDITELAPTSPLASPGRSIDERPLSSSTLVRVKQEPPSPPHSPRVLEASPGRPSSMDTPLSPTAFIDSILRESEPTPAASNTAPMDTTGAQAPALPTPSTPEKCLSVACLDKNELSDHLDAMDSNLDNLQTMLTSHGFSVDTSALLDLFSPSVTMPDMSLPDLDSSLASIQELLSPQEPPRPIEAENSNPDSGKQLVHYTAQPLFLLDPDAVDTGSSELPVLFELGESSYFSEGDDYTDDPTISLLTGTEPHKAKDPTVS

[14] = target: T5, Replicative DNA helicase DnaB (Mycobacterium tuberculosis, UniProt P9WMR3); test: DnaB intein splicing inhibitors, dose response, biochemical, cell-free fluorescence (AID 449749); assay type: functional
T5 sequence (P9WMR3 whole entry): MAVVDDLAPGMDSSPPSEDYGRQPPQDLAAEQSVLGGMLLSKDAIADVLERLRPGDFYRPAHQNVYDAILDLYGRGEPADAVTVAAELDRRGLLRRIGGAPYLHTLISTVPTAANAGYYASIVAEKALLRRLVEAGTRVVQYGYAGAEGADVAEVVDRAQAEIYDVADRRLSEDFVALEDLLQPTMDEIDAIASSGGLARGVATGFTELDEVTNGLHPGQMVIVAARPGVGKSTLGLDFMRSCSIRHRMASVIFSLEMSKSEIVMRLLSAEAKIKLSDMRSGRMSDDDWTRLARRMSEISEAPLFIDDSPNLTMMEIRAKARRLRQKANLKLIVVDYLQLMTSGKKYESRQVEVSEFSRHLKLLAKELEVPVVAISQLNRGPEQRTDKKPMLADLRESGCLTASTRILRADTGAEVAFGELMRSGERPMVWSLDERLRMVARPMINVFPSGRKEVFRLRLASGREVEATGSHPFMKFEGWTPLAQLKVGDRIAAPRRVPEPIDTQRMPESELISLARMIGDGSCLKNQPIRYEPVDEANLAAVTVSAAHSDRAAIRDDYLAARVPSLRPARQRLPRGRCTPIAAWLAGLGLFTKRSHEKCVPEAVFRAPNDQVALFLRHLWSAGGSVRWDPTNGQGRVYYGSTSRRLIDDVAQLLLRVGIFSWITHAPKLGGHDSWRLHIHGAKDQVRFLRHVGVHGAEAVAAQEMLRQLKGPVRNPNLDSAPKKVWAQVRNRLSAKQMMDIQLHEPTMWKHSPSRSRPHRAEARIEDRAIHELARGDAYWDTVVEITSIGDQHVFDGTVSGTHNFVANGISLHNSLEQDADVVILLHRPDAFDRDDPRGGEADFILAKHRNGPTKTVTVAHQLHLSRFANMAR

[15] = target: T6, Protein RecA (Mycobacterium tuberculosis, UniProt P9WHJ3); test: Fluorescence Cell-Free Homogeneous Dose Retest to Identify Inhibitors of RecA-Intein Splicing Activity. [Related pubchem assays (depositor defined):AID2097, AID2223, AID489010, AID492950]; assay type: functional
T6 sequence (P9WHJ3 whole entry): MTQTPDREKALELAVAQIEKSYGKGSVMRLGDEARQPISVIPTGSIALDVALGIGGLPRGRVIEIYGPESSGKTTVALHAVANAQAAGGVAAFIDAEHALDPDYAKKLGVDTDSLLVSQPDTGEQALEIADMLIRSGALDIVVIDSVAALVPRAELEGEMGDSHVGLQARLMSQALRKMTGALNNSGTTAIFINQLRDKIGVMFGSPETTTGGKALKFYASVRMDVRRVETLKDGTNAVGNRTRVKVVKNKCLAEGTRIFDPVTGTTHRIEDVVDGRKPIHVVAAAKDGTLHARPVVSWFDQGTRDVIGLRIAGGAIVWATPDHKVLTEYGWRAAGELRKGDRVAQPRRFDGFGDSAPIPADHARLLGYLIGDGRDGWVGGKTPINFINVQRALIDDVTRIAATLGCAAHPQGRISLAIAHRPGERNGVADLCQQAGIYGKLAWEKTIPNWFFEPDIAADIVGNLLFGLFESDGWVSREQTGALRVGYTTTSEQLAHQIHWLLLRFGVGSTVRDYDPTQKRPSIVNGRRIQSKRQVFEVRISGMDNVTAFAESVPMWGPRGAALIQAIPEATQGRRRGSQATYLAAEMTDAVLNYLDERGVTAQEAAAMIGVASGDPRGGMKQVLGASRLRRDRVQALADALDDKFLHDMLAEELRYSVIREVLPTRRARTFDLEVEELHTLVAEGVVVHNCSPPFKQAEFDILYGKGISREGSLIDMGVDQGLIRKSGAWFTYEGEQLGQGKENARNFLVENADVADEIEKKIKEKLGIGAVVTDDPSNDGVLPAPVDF

[16] = target: Voltage-dependent T-type calcium channel subunit alpha-1H (Homo sapiens, UniProt O95180); assay type: functional;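 further: channel activity triggered by adding a high calcium stimulation buffer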
[17] = target: Aminopeptidase N (Plasmodium falciparum FcB1/Columbia, UniProt O96935); test: P. falciparum M1AAP inhibitors, biochemical, fluorogenic H-Leu-NHMec substrate, 1536-well (AID 1445); design: species or system Plasmodium falciparum 3D7, 3D7
Chain of Aminopeptidase N (O96935 whole entry): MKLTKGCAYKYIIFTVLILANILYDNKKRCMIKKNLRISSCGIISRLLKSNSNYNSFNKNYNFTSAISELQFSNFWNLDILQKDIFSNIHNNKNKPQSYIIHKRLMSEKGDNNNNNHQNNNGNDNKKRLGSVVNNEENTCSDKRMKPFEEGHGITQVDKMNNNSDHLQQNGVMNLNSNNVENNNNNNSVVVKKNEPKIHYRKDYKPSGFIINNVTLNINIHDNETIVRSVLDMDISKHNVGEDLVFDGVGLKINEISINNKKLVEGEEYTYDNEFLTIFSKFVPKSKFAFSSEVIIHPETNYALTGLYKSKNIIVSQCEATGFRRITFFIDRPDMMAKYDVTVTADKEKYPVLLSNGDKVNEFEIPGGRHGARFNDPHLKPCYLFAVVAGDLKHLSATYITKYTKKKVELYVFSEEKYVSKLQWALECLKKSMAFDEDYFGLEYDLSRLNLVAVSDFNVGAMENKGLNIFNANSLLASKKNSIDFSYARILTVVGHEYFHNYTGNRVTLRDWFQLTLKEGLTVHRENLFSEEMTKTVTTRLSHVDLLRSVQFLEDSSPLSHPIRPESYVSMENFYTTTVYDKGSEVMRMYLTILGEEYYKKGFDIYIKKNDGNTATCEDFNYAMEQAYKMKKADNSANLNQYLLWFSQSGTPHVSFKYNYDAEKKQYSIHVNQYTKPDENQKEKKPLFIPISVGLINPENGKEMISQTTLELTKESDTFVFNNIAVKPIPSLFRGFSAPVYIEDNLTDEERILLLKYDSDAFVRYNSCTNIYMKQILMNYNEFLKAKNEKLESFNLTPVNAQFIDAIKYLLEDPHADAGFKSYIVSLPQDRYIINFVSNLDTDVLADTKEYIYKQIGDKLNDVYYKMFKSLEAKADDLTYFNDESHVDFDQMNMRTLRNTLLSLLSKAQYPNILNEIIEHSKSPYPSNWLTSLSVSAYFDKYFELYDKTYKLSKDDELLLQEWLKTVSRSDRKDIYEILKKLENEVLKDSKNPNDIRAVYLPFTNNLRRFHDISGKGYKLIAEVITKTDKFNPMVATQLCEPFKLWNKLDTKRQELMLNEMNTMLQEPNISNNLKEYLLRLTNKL

[18] = target: Nonstructural protein 1 (Influenza A virus, UniProt Q194T2); assay type: functional, Influenza A virus (A/California/07/2009(H1N1))
Chain of Nonstructural protein 1 (Q194T2 whole entry, the tested form may be a part): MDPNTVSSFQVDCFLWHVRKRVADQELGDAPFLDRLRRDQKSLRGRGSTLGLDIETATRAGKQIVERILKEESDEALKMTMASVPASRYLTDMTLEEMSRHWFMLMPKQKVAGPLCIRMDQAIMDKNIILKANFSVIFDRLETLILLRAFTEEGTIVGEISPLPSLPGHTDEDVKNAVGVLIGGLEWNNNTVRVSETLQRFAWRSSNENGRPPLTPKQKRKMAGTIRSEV

[19] = target: T7, Carboxy-terminal domain RNA polymerase II polypeptide A small phosphatase 1 (Homo sapiens, UniProt Q9GZU7); test: inhibitors of CTDSP1, concentration-response testing, biochemical assay, absorbance-based, actives from ultra-high-throughput screening (AID 540297); assay type: functional
T7 sequence (Q9GZU7 whole entry): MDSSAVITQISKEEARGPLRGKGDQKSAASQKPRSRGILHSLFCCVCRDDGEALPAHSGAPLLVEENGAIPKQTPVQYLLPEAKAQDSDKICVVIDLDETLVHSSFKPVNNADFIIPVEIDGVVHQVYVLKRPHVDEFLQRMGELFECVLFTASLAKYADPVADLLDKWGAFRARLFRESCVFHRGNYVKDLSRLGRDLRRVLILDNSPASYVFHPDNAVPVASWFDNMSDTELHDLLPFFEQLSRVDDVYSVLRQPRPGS

Chain of Aspartyl aminopeptidase (Q8I2J3 whole entry): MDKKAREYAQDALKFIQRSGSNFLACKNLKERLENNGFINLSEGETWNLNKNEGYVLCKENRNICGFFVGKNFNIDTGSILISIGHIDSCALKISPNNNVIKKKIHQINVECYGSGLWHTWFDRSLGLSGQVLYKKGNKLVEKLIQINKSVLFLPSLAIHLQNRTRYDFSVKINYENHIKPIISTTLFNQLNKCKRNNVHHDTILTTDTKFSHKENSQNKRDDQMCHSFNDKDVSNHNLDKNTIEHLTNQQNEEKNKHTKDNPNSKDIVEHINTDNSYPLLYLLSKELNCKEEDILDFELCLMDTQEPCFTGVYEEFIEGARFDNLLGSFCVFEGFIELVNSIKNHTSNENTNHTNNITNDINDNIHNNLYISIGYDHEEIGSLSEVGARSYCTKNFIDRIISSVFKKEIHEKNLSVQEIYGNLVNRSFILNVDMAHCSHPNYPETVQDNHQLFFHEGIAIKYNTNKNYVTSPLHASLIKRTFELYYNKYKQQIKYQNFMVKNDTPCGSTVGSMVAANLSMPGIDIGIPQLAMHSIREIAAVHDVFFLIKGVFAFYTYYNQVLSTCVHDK
Chain of Procathepsin L (P07711 whole entry): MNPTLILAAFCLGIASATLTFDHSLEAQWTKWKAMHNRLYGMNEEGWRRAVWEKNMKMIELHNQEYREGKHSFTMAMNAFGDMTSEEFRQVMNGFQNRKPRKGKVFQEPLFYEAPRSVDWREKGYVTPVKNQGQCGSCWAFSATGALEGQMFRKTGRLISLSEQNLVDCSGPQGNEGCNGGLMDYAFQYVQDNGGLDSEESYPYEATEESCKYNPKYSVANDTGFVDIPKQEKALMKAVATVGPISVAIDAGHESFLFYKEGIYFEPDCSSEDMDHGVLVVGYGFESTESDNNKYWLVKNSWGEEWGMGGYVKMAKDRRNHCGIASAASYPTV

CCn1cc(C(=O)O)c(=O)c2cc(F)c(N3CCNCC3)cc21 [NORFLOXACIN]
EC50 [1]: > 50 µM (active) | AC50 [2]: 1.33 µM (active)

COC(=O)CN(n1cnnc1)S(=O)(=O)c1ccc(C)cc1
IC50 [3]: 0.351 µM (active) | IC50 [4]: > 59.6 µM (not active)

COCCn1c(N/N=C(C)/C=C/c2ccccc2)nc2c1c(=O)[nH]c(=O)n2C
EC50 [5]: > 100 µM (not active)

O=c1[nH]c(CSc2nnc[nH]2)nc2ccccc12
IC50 [3]: 0.833 µM (active) | IC50 [4]: > 59.6 µM (not active)

COc1ccc(S(=O)(=O)C(C#N)c2nc3ccccc3nc2N2CCCCC2)cc1 (stereo unspecified)
EC50 [6]: > 50 µM (not active)

O=C(/C=C(\O)c1ccccc1)C(=O)NNC(=O)c1ccccc1
EC50 [1]: > 50 µM (active)

COc1ccc(S(=O)(=O)N2CCCCCC2)cc1N(C)S(=O)(=O)c1ccc(C)cc1
EC50 [7]: 6.7 µM (active) | EC50 [8]: > 29.9 µM (not active)

CCCCOc1nc2ccccc2nc1C(C#N)S(=O)(=O)c1ccccc1 (stereo unspecified)
EC50 [6]: > 50 µM (not active)

COc1cccc(-n2nnnc2S(C)(=O)=O)c1
EC50 [9]: 3.96 µM (inconclusive) | EC50 [10]: 1.76 µM (active) | IC50 [11]: 1.26 µM (active) | IC50 [12]: 23.6 µM (not active) | EC50 [13]: 6.59 µM (active) | AC50 [14]: 3.14 µM (active) | EC50 [15]: 1.1 µM (active)

Cc1ccc(S(=O)(=O)c2c(C)cc(C)nc2Oc2cccc(C(F)(F)F)c2)cc1
EC50 [7]: 5.23 µM (active) | EC50 [8]: > 29.9 µM (not active) | EC50 [16]: 7.06 µM (active)

O=C1Nn2c(nc3c(c2=O)CCC3)/C1=N/Nc1cccc(Cl)c1
IC50 [17]: 83.9 µM (active) | IC50 [18]: > 100 µM (active) | IC50 [19]: 6.15 µM (active)

CCCCN1CC(=O)C(c2nc3ccccc3[nH]2)=C1N
EC50 [5]: > 100 µM (not active)

— ChEMBL document CHEMBL1201862, “PubChem BioAssay data set” (2004)
